Data on one substance can be found in article PMC6387620 (Nature microbiology, 2018).

This assay relates to E. coli BW25113. It is filed as cell-based, Escherichia coli. The note with it: n=3.

For Polymyxin B, the “Increase in Polymyxin B resistance” value was “five”.
